Measured values published in patent US20130109655A1, “Method for mitigating of Prostaglandin E2 reducing side effects of non-steroidal anti-inflammatory drugs” (priority 2011, published 2013).
Where “and” joins values, the source holds several entries; their conditions need not be identical. Equal values may be shown once. Read-outs that look alike come from different tables or passages of the source.

What was measured:
[1] = test system: prostaglandin e2 like substance (PGe2-LS); conditions: cited from earlier work; for PGe2-LS release (M±SE): samples treated with indomethacin and the pyridine derivative, control group 0.54±0.06, n=5
prostaglandin e2 [2] = test: serum prostaglandin e2 levels in normal male volunteers after niceritrol and Aspirin® (Nozaki et al. 1987); format: in vivo, human; conditions: after administration of niceritrol and Aspirin®; basal 23.3±11.8 pg/ml
Source text: FIG. 3. is prostaglandin e2 section extracted by inventors from graph of FIG. 1. from publication “Increased compliance of niceritrol treatment by addition of Aspirin®: relationship between changes in prostaglandins and skin flushing.” (Nozaki, S. et al., 1987, Int J Clin Pharmacol Ther Toxicol, v 25, p: 643-7). Inventors marked on said figure extracted by inventors by using UN-SCAN-IT® basal (52.3, 33.6, 26.6, 21.2, 19.1, 18.1, 16.8, 16.0, 15.1, 13.9), and after niceritrol and Aspirin® administration (46.2, 16.6, 42.0, 44.1, 8.2, 11.4, 18.6, 9.9, 27.6, 6.2) concentration coordinates (pg/ml) of prostaglandin e2. […]
Inventors used UN-SCAN-IT® to obtain digital concentration data from prostaglandin e2 section of the graph from the FIG. 1. of the publication (FIG. 3.). The obtained by inventors serum basal (52.3, 33.6, 26.6, 21.2, 19.1, 18.1, 16.8, 16.0, 15.1, 13.9), and after niceritrol and Aspirin® administration (46.2, 16.6, 42.0, 44.1, 8.2, 11.4, 18.6, 9.9, 27.6, 6.2) prostaglandin e2 digital levels (pg/ml) were statistically analysed using paired t-test.

prostaglandin e2 [3] = conditions: cited from earlier work; for change in serum levels of prostaglandin e2: niceritrol alone, Aspirin® added to niceritrol
[4] = test system: radioimmunoassayed prostaglandin E (R-PGE); conditions: basal 21±10 pg/ml, cited from earlier work
[5] = test system: radioimmunoassayed prostaglandin E (R-PGE); conditions: naproxen and nicotinic acid, basal 35.6±29.8, cited from earlier work
prostaglandin e2 [6] = conditions: cited from earlier work; for effect on nicotine-initiated prostaglandin e2 production: cells treated with 100 mcM nicotine, NSAID 0.1 to 100 mcM; for prostaglandin e2 concentration: nicotine (100 mcM) pre-treated cells, highest NSAID concentration (log M=−4), absence of IL-18, basal 337 pM, digitised from published graph
prostaglandin e2 [7] = conditions: cited from earlier work; for prostaglandin e2 concentration: nicotine pre-treated cells, highest NSAID concentration (log M=−4), absence of IL-18, basal 0.35 nM, digitised from published graph; for effect on nicotine-induced PGE2 production: nicotine-treated cells

Q: For OCc1cccnc1 [nicotinyl alcohol], which “PGe2-LS release (M±SE)” value [1] is on record?
A: The value was 0.52 ± 0.06 ng/min.

Q: Which “mean (M±SD) serum prostaglandin e2 concentration” value (prostaglandin e2 [2]) does the source give for O=C(OCC(COC(=O)c1cccnc1)(COC(=O)c1cccnc1)COC(=O)c1cccnc1)c1cccnc1 [niceritrol] here?
A: The value was 23.1 ± 15.8 pg/mL.

Q: What about the “serum prostaglandin e2 level, individual volunteers” value (prostaglandin e2 [3]; after niceritrol and Aspirin® administration, 10 normal male volunteers, digitised from published graph) of the same compound?
A: Its value is 46.2 pg/mL and 6.2 pg/mL and 16.6 pg/mL and 42.0 pg/mL and 44.1 pg/mL and 8.2 pg/mL and 11.4 pg/mL and 18.6 pg/mL and 9.9 pg/mL and 27.6 pg/mL.

Q: And the “change in serum levels of prostaglandin e2” value (prostaglandin e2 [3])?
A: The value was “significantly increased”.

Q: Which “PGe2-LS release (M±SE)” value [1] does the source give for Cc1ncc(CO)c(CO)c1O.Cl [pyridoxine hydrochloride] here?
A: The value was 0.44 ± 0.02 ng/min.

Q: For CC(=O)Oc1ccccc1C(=O)O [Aspirin®], which “change in serum levels of prostaglandin e2” value (prostaglandin e2 [3]) is on record?
A: Its value is “significantly decreased”.

Q: Which “PGe2-LS release (M±SE)” value [1] does the source give for O=C(O)c1cccnc1 [nicotinic acid] here?
A: The value was 0.63 ± 0.03 ng/min.

Q: And the “plasma concentration of R-PGE (M±SE)” value ([4]; infusion of nicotinic acid)?
A: Its value is 49 ± 7 pg/mL.

Q: And the “plasma concentration of R-PGE (M±SE)” value ([4]; nicotinic acid infusion after naproxen treatment, n=3)?
A: Its value is 8 ± 2 pg/mL.

Q: What about the “actual release of R-PGE (M±SE)” value ([5]; 5 min) of the same compound?
A: Its value is 8.2±13.8 pg/100 ml tissue×min.

Q: What about the “actual release of R-PGE (M±SE)” value ([5]; 10 min) of the same compound?
A: Its value is 10.6±16.6 pg/100 ml tissue×min.

Q: And the “actual release of R-PGE (M±SE)” value ([5]; 20 min)?
A: Its value is 18.8±16.2 pg/100 ml tissue×min.

Q: And the “actual release of R-PGE (M±SE)” value ([5]; 60 min)?
A: The value was 15.1±13 pg/100 ml tissue×min.

Q: For COc1ccc2c(c1)c(CC(=O)O)c(C)n2C(=O)c1ccc(Cl)cc1 [indomethacin], which “effect on nicotine-initiated prostaglandin e2 production” value (prostaglandin e2 [6]) is on record?
A: The value was “suppressed”.

Q: And the “prostaglandin e2 concentration” value (prostaglandin e2 [6])?
A: Its value is 768 pM.

Q: And the “prostaglandin e2 concentration” value (prostaglandin e2 [7])?
A: The value was 0.50 nM.

Q: What about the “effect on nicotine-induced PGE2 production” value (prostaglandin e2 [7]) of the same compound?
A: The value was “inhibited”.

Q: What about the “effect on PGe2-LS release stimulated by pyridine derivatives” value ([1]; indomethacin treatment) of the same compound?
A: Its value is “reduced”.

Q: Which “PGe2-LS release (M±SE)” value [1] does the source give for CN(C)C(=O)Oc1ccc[n+](C)c1 [pyridostigmine bromide] here?
A: Its value is 0.50 ± 0.06 ng/min.

Q: With CS(=O)(=O)Nc1ccc([N+](=O)[O-])cc1OC1CCCCC1 [NS398] as the compound, how does the “effect on nicotine-initiated prostaglandin e2 production” value (prostaglandin e2 [6]) read?
A: The value was “suppressed”.

Q: And the “prostaglandin e2 concentration” value (prostaglandin e2 [6])?
A: Its value is 761 pM.

Q: And the “prostaglandin e2 concentration” value (prostaglandin e2 [7])?
A: The value was 0.55 nM.

Q: What about the “effect on nicotine-induced PGE2 production” value (prostaglandin e2 [7]) of the same compound?
A: Its value is “inhibited”.
